Measurements taken from patent US20250276972A1, “COMPOUNDS AS CASEIN KINASE INHIBITORS” (GRITSCIENCE BIOPHARMACEUTICALS CO.,LTD., priority 2020, published 2025).

How the values were obtained:
CK1δ = molecular target: T1, CK1δ (Homo sapiens, UniProt P48730); experiment: CK1δ inhibition (EC50); Bmal1-dLuc or Per2-dLuc U2OS luminescence rhythm period assay; format: cell-based; details: Table 3
T1 construct: endogenous in cells; host or cells: Bmal1-dLuc or Per2-dLuc U2OS cells
Protocol: Bmall-dLuc or Per2-dLuc U2OS cells were suspended in the culture medium (DMEM supplemented with 10% fetal bovine serum, 0.29 mg/mL L-glutamine, 100 units/mL penicillin, and […] streptomycin) and plated onto 96-well white solid-bottom plates at 200 μL (10,000 cells) per well. After 2 days, 100 μL of the explant medium (DMEM supplemented with 2% B27, 10 mM HEPES, 0.38 mg/mL sodium bicarbonate, 0.29 mg/mL L-glutamine, 100 units/mL penicillin, […], 0.1 mg/mL gentamicin, and 1 mM luciferin, pH 7.2) was dispensed to each well, followed by the application of 1 μL of a compound of the present application (dissolved in DMSO; final concentration was 0.7% in DMSO). The plate was covered with an optically clear film and set to microplate reader (Infinite M200, Tecan).

[1] = Intrinsic clearance in liver microsomes (human); format: in vitro ADME; details: Human liver microsomes 0.5 mg/mL, 2 μM compound, 37° C.
Protocol: (§1) • 1. The master solution was prepared according to Table 5.
(§2) • 2. Three separated experiments were performed as follows. a) With NADPH: 10 μL of 20 mg/mL liver microsomes and 40 μL of 10 mM NADPH were added to the incubations. The final concentrations of microsomes and NADPH were 0.5 mg/mL and 1 mM, respectively. b) Without NADPH: 10 μL of 20 mg/mL liver microsomes and 40 μL of ultra-pure H2O were added to the incubations. The final concentration of microsomes was 0.5 mg/mL. c) Heat-inactivated microsomes without NADPH: 10 μL of 20 mg/mL heat-inactivated liver microsomes and 40 μL of ultra-pure H2O were added to the incubations. The final concentration of microsomes was 0.5 mg/mL. • 3. The reaction was started with the addition of 4 μL of 200 μM test compound solution or control compound solution at the final concentration of 2 μM and carried out at 37° C. • 4. Aliquots of 50 μL were taken from the reaction solution at 0, 15, 30, 45 and 60 min. […] Samples were centrifuged at 3, 220 g for 40 minutes. […] Data Analysis
(§3) Peak areas were determined from extracted ion chromatograms. The slope value, k, was determined by linear regression of the natural logarithm of the remaining percentage of the parent drug vs. incubation time curve.
(§4) The in vitro half-life (in vitro t1/2) was determined from the slope value:
(§5) Conversion of the in vitro t1/2 (min) into the in vitro intrinsic clearance (in vitro CLint, in μL/min/mg protein) was done using the following equation (mean of duplicate determinations): […]

[2] = Intrinsic clearance in liver microsomes (mouse); format: in vitro ADME; details: Mouse liver microsomes 0.5 mg/mL, 2 μM compound, 37° C.
Protocol: as §1, §2, §3, §4, §5

in vitro = details: human, Caco-2, pH 7.4
Protocol: Cells were cultivated for 14-18 days in a cell culture incubator at 37° C., 5% CO2, 95% relative humidity. Cell culture medium was replaced every other day, beginning no later than 24 hours after initial plating.
10 mM stock solutions of test compounds were prepared in DMSO. The stock solutions of positive controls were prepared in DMSO at the concentration of 10 mM.
125 μL of 5 μM working solution of control compound and test compounds were added to the Transwell insert (apical compartment), and transfer 50 μL sample (DO sample) immediately from the apical compartment to a new 96-well plate. […] 285 μL of 5 μM working solution of control compound and test compounds were to the receiver plate wells (basolateral compartment), and transfer 50 μL sample (DO sample) immediately from the basolateral compartment to a new 96-well plate. Fill the wells in the Transwell insert (apical compartment) with 75 μL of HBSS (10 mM HEPES, pH 7.4). […] Samples were Vortexed for 5 minutes and then centrifuged at 3,220 g for 40 minutes. […] 100 μL of the Lucifer yellow solution was added to each Transwell insert (apical compartment), followed by filling the wells in the receiver plate (basolateral compartment) with 300 μL of HBSS (10 mM HEPES, pH 7.4). The plates were Incubated at 37° C. for 30 mins. 80 μL samples were removed directly from the apical and basolateral wells (using the basolateral access holes) and transferred to wells of new 96 wells plates. The Lucifer Yellow fluorescence (to monitor monolayer integrity) signal was measured in a fluorescence plate reader at 485 nm excitation and 530 nm emission.
The apparent permeability coefficient (Papp), in units of centimeter per second, can be calculated for Caco-2 drug transport assays using the following equation: […]

wild type CK1δ = wild type CK1δ (Homo sapiens, UniProt P48730); experiment: CK1δ kinase assay (Kinase-Glo); format: biochemical; details: 10 μM ATP, 2 nM wild type CK1δ, 85 min at 25° C.
Sequence of wild type CK1δ (P48730 whole entry): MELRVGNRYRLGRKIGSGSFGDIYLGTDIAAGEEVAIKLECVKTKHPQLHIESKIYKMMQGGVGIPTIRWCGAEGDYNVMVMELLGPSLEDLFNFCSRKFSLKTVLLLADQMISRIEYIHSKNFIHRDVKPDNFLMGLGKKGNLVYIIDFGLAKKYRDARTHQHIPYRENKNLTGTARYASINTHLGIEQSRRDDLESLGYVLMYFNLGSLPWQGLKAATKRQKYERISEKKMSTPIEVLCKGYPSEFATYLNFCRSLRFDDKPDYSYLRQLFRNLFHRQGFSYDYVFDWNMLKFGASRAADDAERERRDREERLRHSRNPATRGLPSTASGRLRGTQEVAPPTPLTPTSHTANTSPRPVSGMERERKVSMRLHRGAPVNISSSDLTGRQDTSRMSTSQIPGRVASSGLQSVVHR
Protocol: The reaction mixture was incubated for 85 min at 25° C.; detection was carried out as described for the Kinase-Glo Assay (Promega). Luminescent output was measured on the Perkin Elmer Envision plate reader (PerkinElmer, Waltham, MA).

[3] = read-out: in vitro CLint (μL/min/mg protein)

T1 sequence (P48730 whole entry): as above

| EC50 (CK1δ) | microsomal CLint at 2 μM [1, 3] | half-life at 2 μM ([1]; read-out: in vitro t1/2) | microsomal CLint at 2 μM [2, 3] | half-life at 2 μM ([2]; read-out: in vitro t1/2) | Papp A→B at 2 h, 5 μM (in vitro) | Papp B→A at 2 h, 5 μM (in vitro) | efflux ratio at 2 h, 5 μM (in vitro) | IC50 (wild type CK1δ) | SMILES |
| --- | --- | --- | --- | --- | --- | --- | --- | --- | --- |
| 200 nM | 13.5 µL/min/mg | 1.71 h | 35.1 µL/min/mg | 0.658 h | 0.88 ×10⁻⁶ cm/s | 22.4 ×10⁻⁶ cm/s | 25.4 | – | CC(=O)Nc1cc(-c2c(-c3ccc(F)cc3)nn3c2CN(CCN(C)C)CC3)ccn1 [Compound I-50, N-(4-(5-(2-(dimethylamino)ethyl)-2-(4-fluorophenyl)-4,5,6,7-tetrahydropyrazolo [1,5-a]pyrazin-3-yl)pyridin-2-yl)acetamide] |
| 700 nM | – | – | – | – | – | – | – | 334 nM | Nc1cc(-c2nn3c(c2-c2ccc(F)cc2)C(=O)NCC3)ccn1 [Compound I-64, 2-(2-aminopyridin-4-yl)-3-(4-fluorophenyl)-6,7-dihydropyrazolo[1,5-a]pyrazin-4(5H)-one] |
| 300 nM | – | – | – | – | – | – | – | 37.4 nM | COc1ccc(/C=C/C(=O)Nc2cc(-c3c(-c4ccc(F)cc4)nn4c3CN(C(C)=O)CC4)ccn2)c(OC)c1 [Compound I-69, (E)-N-(4-(5-acetyl-2-(4-fluorophonyl)-4,5,6,7-tetrahydropyrazolo[1,5-a]pyrazin-3-yl)pyridin-2-yl)-3-(2,4-dimethoxyphenyl) acrylamide] |
